{"source": "patent US11324852B2", "about": "“Coated silk films, methods for the production thereof and uses thereof” (AMSILK GMBH, priority 2014, dated 2022)", "format_in_all_cases": "physicochemical", "key": {"C16 films": {"tested_on": "C16 films", "assay": "Remote loading of drugs and model protein lysozyme into C16 films", "details": "30 min, room temperature", "description": "Loading efficiency and loading were determinate for lysozyme dissolved in high purified water (HPW). For the remote loading of lysozyme, the loading solution was prepared dissolving 1% w/v lysozyme in high purified water. Three different films were weighted, following by incubation in a 6-well plate with 5 ml of the loading solution at room temperature, at 2 rpm. After 30 min, films were removed and the loading solution was diluted 1:20 and analysed photometrically at 280 nm recording its spectra using a spectrophotometer (Agilent Technologies 8453, Oberhaching, Germany). A calibration curve was prepared using the original lysozyme solution. The same method was performed using as incubation medium of 0.5% and 0.25% of lysozyme.\nA) Low molecular weight drugs (tetracain hydrochloride, ethacridine monohydrate lactate, nipagin and phenol red) were dissolved at a concentration of 0.5 mg/ml in highly purified water (HPW), Tris 5 mM pH 7, and formate buffer 5 mM, pH 3, respectively. After dissolving the drugs, all solutions were filtered through a 0.45 μm cellulose acetate filter.\nFor the remote loading process, the previously cast C16 films were cut into pieces, weighed and placed into 24-well plates. At least four C16 film samples were incubated with 1 ml of each drug solutions for 30 min at gently agitation of 2 rpm at room temperature. After removing the C16 films, the quantities of the loaded drugs were calculated indirectly by measuring the remaining loading solutions photometrically. Finally, the loading and the loading-efficiency for each experimental condition were calculated (see Table 1).\nFor the remote loading of the model protein lysozyme, the loading solution was prepared by dissolving 1% w/v lysozyme in HPW. As before, three different C16 films were weighed. Afterwards, C16 films were incubated in a 6-well plate with 5 ml of the loading solution at gently agitation of 2 rpm at room temperature. After 30 min, C16 films were removed and the loading solution was analysed photometrically at 280 nm. Spectra were recorded using a spectrophotometer. At physiological pH, spider silk films are negatively charged.\nB) For the remote loading of Lysozyme, the loading solution was prepared dissolving 1% w/v lysozyme in high purified water (HPW). Three different C16 films were weighted, followed by incubation in a 6-well plate with 5 ml of the loading solution at gently agitation of 2 rpm at room temperature. After 30 min, C16 films were removed and the loading solution was diluted 1:20 and analyzed photometrically at 280 nm. In particular, a spectra of this solution was subsequently recorded using a spectrophotometer (Agilent Technologies 8453, Oberhaching, Germany). A calibration curve was prepared using the original lysozyme solution. The same method was performed using an incubation medium with 0.5% and 0.25% of Lysozyme."}, "[1]": {"assay": "Cumulative release of paracetamol, FITC-dextran and FITC-BSA from directly loaded C16 films", "details": "for Release from C16 films (in words): 0.01 M PBS buffer pH 7.4, 37° C.", "description": "Paracetamol: Before casting the C16 films, paracetamol was added and dissolved directly in 2.5% C16 protein solution. The resulting films contained each 2.5 mg of paracetamol. Three film samples containing paracetamol were incubated in 0.01 M PBS buffer pH 7.4 at 37° C. At predetermined time points, the buffer was removed and replaced with fresh medium. The release buffer was analyzed by NanoDrop 2000 (peqlab, Erlanger, Germany). […] Each film contained 1.3 mg of FITC-BSA or FD. Films containing the model drugs (n=3) were incubated in 0.01 M PBS buffer pH 7.4 at 37° C. At predetermined time points the buffer was removed and replaced with fresh medium. The release buffer was analyzed using the fluorescence spectrophotometer Cary Eclipse Varian (Agilent technology, Böblingen, Germany) applying an excitation wavelength of 490 nm and an emission of 520 nm. The drug which was not released was quantified by dissolving the film matrix in a 6 M GdmSCN solution. This solution was subsequently analyzed using a fluorescence spectrophotometer.\nA) Spray-dried C16 proteins were dissolved in 6 M guanidinium thiocyanate and subsequently dialyzed against 5 mM Tris/HCl buffer, pH 8 at 4° C. The pH was measured using a pH meter. The protein solution was centrifuged at 10000 rpm for 15 min and filtered through a 0.45 μm cellulose acetate filter. The protein concentration was determined photometrically. The protein solution was finally diluted with Tris buffer to 2.5% w/v. Before casting the films, paracetamol was added and dissolved directly in the protein solution. Films (2.5×3 cm) were cast on the plastic foil A5 22/5B from mtv-messtechnik (Koeln, Germany) and dried in a laminar flow cabinet at room temperature overnight at 45% relative humidity. The resulting films contained 2.5 mg of drug. Three film samples containing paracetamol were incubated in 0.01 M PBS buffer, pH 7.4 at 37° C. At predetermined time points, the buffer was removed and replaced with fresh medium. The release buffer was analysed using a UV-Vis spectrophotometer.\nFilms were cast as described above. Every film contained 25 mg of C16 and 1.3 mg of FITC-BSA or FD, respectively. Films containing the substances were incubated in 0.01 M PBS buffer, pH 7.4 at 37° C. At predetermined time points, the buffer was removed and replaced with fresh medium. The release buffer was analysed using a fluorescence spectrophotometer applying an excitation wavelength of 490 nm and an emission of 520 nm. The substance which was not released was quantified by dissolving the film matrix in a 6M GdmSCN solution. This solution was subsequently analysed using a fluorescence spectrophotometer. The sum of the non-released substance and the released amount of substance was calculated as 100%. […] After direct loading with FITC-BSA, C16 films released almost 65% of the model protein within one week. […] The cumulative release of paracetamol, FITC-dextran 21 kDa (FD) and FITC-BSA from C16 films casted from an aqueous solution is shown in FIG. 6."}, "[2]": {"assay": "Isoelectric point (pI) of spider silk polypeptides"}, "[3]": {"details": "HPW (highly purified water), LMW drugs 0.5 mg/ml, lysozyme 1% w/v"}, "[4]": {"details": "pH 3 (formate buffer 5 mM), drug 0.5 mg/ml"}, "[5]": {"details": "pH 7 (Tris 5 mM), drug 0.5 mg/ml"}}, "note": "Counter-ions that a name gives are not always drawn."}
{"molecule": "CC(O)C(=O)O.CCOc1ccc2nc3cc(N)ccc3c(N)c2c1.O", "note": "[Ethacridine lact., ethacridine monohydrate lactate]", "values": [{"measurement": "Loading (L)", "setting": "C16 films; [3]", "value": "3.3 ± 0.3", "unit": "%"}, {"measurement": "Loading efficiency (LE)", "setting": "C16 films; [3]", "value": "54.2 ± 3.2", "unit": "%"}, {"measurement": "Loading (L)", "setting": "C16 films; [4]", "value": "2.4 ± 0.5", "unit": "%"}, {"measurement": "Loading efficiency (LE)", "setting": "C16 films; [4]", "value": "16.5 ± 5.4", "unit": "%"}, {"measurement": "Loading (L)", "setting": "C16 films; [5]", "value": "3.5 ± 1.0", "unit": "%"}, {"measurement": "Loading efficiency (LE)", "setting": "C16 films; [5]", "value": "45.8 ± 2.7", "unit": "%"}]}
{"molecule": "COC(=O)c1ccc(O)cc1", "note": "[Nipagin, nipagin]", "values": [{"measurement": "Loading (L)", "setting": "C16 films; [3]", "value": "0.8 ± 0.3", "unit": "%"}, {"measurement": "Loading efficiency (LE)", "setting": "C16 films; [3]", "value": "9.6 ± 4.3", "unit": "%"}, {"measurement": "Loading (L)", "setting": "C16 films; [4]", "value": "0.5 ± 0.2", "unit": "%"}, {"measurement": "Loading efficiency (LE)", "setting": "C16 films; [4]", "value": "5.3 ± 2.3", "unit": "%"}, {"measurement": "Loading (L)", "setting": "C16 films; [5]", "value": "0.0 ± 0.0", "unit": "%"}, {"measurement": "Loading efficiency (LE)", "setting": "C16 films; [5]", "value": "0.0 ± 0.0", "unit": "%"}]}
{"molecule": "CCCCNc1ccc(C(=O)OCCN(C)C)cc1", "note": "[Tetracaine HCl, tetracain hydrochloride]", "values": [{"measurement": "Loading (L)", "setting": "C16 films; [3]", "value": "3.8 ± 1.9", "unit": "%"}, {"measurement": "Loading efficiency (LE)", "setting": "C16 films; [3]", "value": "35.1 ± 8.3", "unit": "%"}, {"measurement": "Loading (L)", "setting": "C16 films; [4]", "value": "0.0 ± 0.0", "unit": "%"}, {"measurement": "Loading efficiency (LE)", "setting": "C16 films; [4]", "value": "0.0 ± 0.0", "unit": "%"}, {"measurement": "Loading (L)", "setting": "C16 films; [5]", "value": "2.5 ± 07", "unit": "%"}, {"measurement": "Loading efficiency (LE)", "setting": "C16 films; [5]", "value": "24.3 ± 7.7", "unit": "%"}]}
{"molecule": "CC(=O)Nc1ccc(O)cc1", "note": "[paracetamol]", "values": [{"measurement": "Release from C16 films (in words)", "setting": "[1]; direct loading", "value": "completely release"}]}
{"molecule": "FITC-BSA: FITC-BSA (MW 66.5 kDa), model drug / model protein", "values": [{"measurement": "Release after the burst (in words)", "setting": "[1]; after day 1, 0.01 M PBS pH 7.4, 37° C.", "value": "constant amount per day"}, {"measurement": "Release from C16 films (in words)", "setting": "[1]; direct loading", "value": "slower"}, {"measurement": "Burst release from C16 films", "setting": "[1]; on day 1, direct loading, 0.01 M PBS pH 7.4, 37° C.", "value": "approx. 30%"}, {"measurement": "Cumulative release from C16 films", "setting": "[1]; within one week, direct loading, 0.01 M PBS pH 7.4, 37° C.", "value": "~65", "unit": "%"}]}
{"molecule": "Lysozyme: model protein, positively charged at physiological pH", "values": [{"measurement": "Loading (L)", "setting": "C16 films; [3]", "value": "39.8 ± 1.8", "unit": "%"}, {"measurement": "Loading efficiency (LE)", "setting": "C16 films; [3]", "value": "22.8 ± 0.7", "unit": "%"}]}
{"molecule": "C16: silk polypeptide which comprises 16 repeats of the sequence of module C (SEQ ID NO: 21) (protein) GSSAAAAAAAASGPGGYGPENQGPSGPGGYGPGGPGSSAAAAAAAASGPGGYGPENQGPSGPGGYGPGGPGSSAAAAAAAASGPGGYGPENQGPSGPGGYGPGGPGSSAAAAAAAASGPGGYGPENQGPSGPGGYGPGGPGSSAAAAAAAASGPGGYGPENQGPSGPGGYGPGGPGSSAAAAAAAASGPGGYGPENQGPSGPGGYGPGGPGSSAAAAAAAASGPGGYGPENQGPSGPGGYGPGGPGSSAAAAAAAASGPGGYGPENQGPSGPGGYGPGGPGSSAAAAAAAASGPGGYGPENQGPSGPGGYGPGGPGSSAAAAAAAASGPGGYGPENQGPSGPGGYGPGGPGSSAAAAAAAASGPGGYGPENQGPSGPGGYGPGGPGSSAAAAAAAASGPGGYGPENQGPSGPGGYGPGGPGSSAAAAAAAASGPGGYGPENQGPSGPGGYGPGGPGSSAAAAAAAASGPGGYGPENQGPSGPGGYGPGGPGSSAAAAAAAASGPGGYGPENQGPSGPGGYGPGGPGSSAAAAAAAASGPGGYGPENQGPSGPGGYGPGGP", "values": [{"measurement": "pI", "setting": "[2]", "value": 3.48}]}
